From ChEMBL document CHEMBL1201862, “PubChem BioAssay data set” (2004)
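Values below derive from 48-hour exposures of cells grown in 96-well plates, with endpoints linearly interpolated between the two concentrations bracketing the appropriate inhibition level. GI50 marks 50% less growth.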 Activity calls are given as the source filed them. Rule as the data show it: active = GI50 up to about 1.1 µM and inactive = higher.

Key:
Assay in all cases: NCI tumour cell line growth inhibition, 48 h
CCRF-CEM = test system: CCRF-CEM
COLO 205 = test system: COLO 205
EKVX = test system: EKVX
HCT-15 = test system: HCT-15
LOX IMVI = test system: LOX IMVI
LXFL 529 = test system: LXFL 529
M14 = test system: M14
MOLT-4 = test system: MOLT-4
NCI-H460 = test system: NCI-H460
NCI-H522 = test system: NCI-H522
OVCAR-8 = test system: OVCAR-8
SK-MEL-28 = test system: SK-MEL-28
SK-MEL-2 = test system: SK-MEL-2
SW-620 = test system: SW-620
U-251 = test system: U-251
UO-31 = test system: UO-31
HOP-92 = test system: HOP-92
MCF7 = test system: MCF7
NCI-H226 = test system: NCI-H226
NCI/ADR-RES = test system: NCI/ADR-RES

Row | SMILES | GI50 (CCRF-CEM) | GI50 (COLO 205) | GI50 (EKVX) | GI50 (HCT-15) | GI50 (LOX IMVI) | GI50 (LXFL 529) | GI50 (M14) | GI50 (MOLT-4) | GI50 (NCI-H460) | GI50 (NCI-H522) | GI50 (OVCAR-8) | GI50 (SK-MEL-28) | GI50 (SK-MEL-2) | GI50 (SW-620) | GI50 (U-251) | GI50 (UO-31) | GI50 (HOP-92) | GI50 (MCF7) | GI50 (NCI-H226) | GI50 (NCI/ADR-RES)
1 | C=CCN(N=O)C(=O)N(CCC)CCCC(NC(C)=O)C(=O)NCc1ccccc1 (centres undefined) | > 100 µM (inactive) | > 100 µM (inactive) | > 100 µM (inactive) | > 100 µM | > 100 µM (inactive) | > 100 µM (inactive) | > 100 µM (inactive) | > 100 µM (inactive) | > 100 µM (inactive) | > 100 µM (inactive) | > 100 µM (inactive) | > 100 µM (inactive) | > 100 µM (inactive) | > 100 µM (inactive) | > 100 µM (inactive) | > 100 µM (inactive) | – | – | – | –
2 | C=CCN(N=O)C(=O)N(CCCC(NC(C)=O)C(=O)NCc1ccccc1)Cc1ccccc1 (centres undefined) | 28.2 µM (inactive) | 90.4 µM (inactive) | 58.2 µM (inactive) | 73.8 µM | 46.9 µM (inactive) | 46.1 µM (inactive) | 38.4 µM (inactive) | 16.9 µM (inactive) | 55.8 µM (inactive) | 21.4 µM (inactive) | 67.3 µM (inactive) | 79.4 µM (inactive) | > 100 µM (inactive) | 61.4 µM (inactive) | 78.7 µM (inactive) | 33.1 µM (inactive) | – | – | – | –
3 | COCCOC1=CC(=O)c2c(O)ccc(O)c2C1=O | 4.3 µM (inactive) | 0.284 µM (active) | 2.14 µM (inactive) | 1.02 µM | 0.726 µM (active) | – | 0.186 µM (active) | 2.43 µM (inactive) | 1.58 µM (inactive) | 2.29 µM (inactive) | 1.73 µM (inactive) | 1.52 µM (inactive) | 1.27 µM (inactive) | 0.569 µM (active) | 1.92 µM (inactive) | 2.17 µM (inactive) | 2.13 µM (inactive) | 0.275 µM (active) | 2.23 µM (inactive) | 2.44 µM (inactive)
4 | COc1ccc(-c2c(CN3CCOCC3)sc3nc4ccccc4n23)cc1 | 0.0435 µM (active) | 16.4 µM (inactive) | 15.2 µM (inactive) | 5.58 µM | 18.5 µM (inactive) | – | 7.53 µM (inactive) | 10.3 µM (inactive) | 8.41 µM (inactive) | 2.58 µM (inactive) | 26.5 µM (inactive) | 18.6 µM (inactive) | 30.5 µM (inactive) | 12.2 µM (inactive) | 16.1 µM (inactive) | 30.3 µM (inactive) | 23.1 µM (inactive) | 8.32 µM (inactive) | 42.1 µM (inactive) | 4.92 µM (inactive)
5 | O=C(NCCNCCCNC(=O)c1cc(-c2ccccc2)nc2ccccc12)c1cccc(O)c1O | 0.697 µM (active) | 3.18 µM (inactive) | 24.4 µM (inactive) | 5.36 µM | 3.33 µM (inactive) | – | 1.46 µM (inactive) | 0.916 µM (active) | 2.36 µM (inactive) | 6.82 µM (inactive) | 2.38 µM (inactive) | 1.72 µM (inactive) | 2.8 µM (inactive) | 4.47 µM (inactive) | 2.87 µM (inactive) | 3.3 µM (inactive) | 14.9 µM (inactive) | 3.3 µM (inactive) | 18.5 µM (inactive) | 22.4 µM (inactive)
6 | COc1ccc(NC(C)=O)cc1N1C(=O)/C(=C\c2cccc(Oc3ccccc3)c2)S(=O)(=O)C1c1ccccc1 (centres undefined) | 16.1 µM (inactive) | 58.2 µM (inactive) | 41.6 µM (inactive) | 39 µM | 26.9 µM (inactive) | – | 30.1 µM (inactive) | 16.9 µM (inactive) | 74.1 µM (inactive) | 41.1 µM (inactive) | 35.1 µM (inactive) | 43.1 µM (inactive) | 69.5 µM (inactive) | 28.4 µM (inactive) | 32.7 µM (inactive) | 18.9 µM (inactive) | 25 µM (inactive) | 25.9 µM (inactive) | > 100 µM (inactive) | 27.9 µM (inactive)
7 | CC(C)NC(=O)OCc1c(COC(=O)NC(C)C)c(-c2cc[n+](COC(=O)C(C)C)cc2)n2c1CCC2 | 39.9 µM (inactive) | > 100 µM (inactive) | > 100 µM (inactive) | > 100 µM | > 50.7 µM (inactive) | – | 99.5 µM (inactive) | > 46.9 µM (inactive) | 41.6 µM (inactive) | > 72.1 µM (inactive) | > 100 µM (inactive) | > 100 µM (inactive) | > 100 µM (inactive) | > 100 µM (inactive) | > 100 µM (inactive) | > 100 µM (inactive) | 69.7 µM (inactive) | 64.4 µM (inactive) | > 100 µM (inactive) | > 100 µM (inactive)
8 | Nc1c(C(=O)c2ccc(Cl)cc2)[nH]c(NCc2ccccc2)c1C(=S)Nc1ccccc1 | 2.44 µM (inactive) | 11.5 µM (inactive) | 7.21 µM (inactive) | 1.79 µM | 1.8 µM (inactive) | – | 1.96 µM (inactive) | 2.58 µM (inactive) | 1.77 µM (inactive) | 1.82 µM (inactive) | 1.77 µM (inactive) | 1.77 µM (inactive) | 1.91 µM (inactive) | 1.88 µM (inactive) | 1.72 µM (inactive) | 1.58 µM (inactive) | 2.84 µM (inactive) | 1.58 µM (inactive) | 7.91 µM (inactive) | 7.83 µM (inactive)
9 | COc1cc(N(CCC#N)CCC#N)ccc1C(/N=N/c1cccc(C)c1)=N\NC(=O)c1ccc(C)cc1 | 97.3 µM (inactive) | 60 µM (inactive) | 87.7 µM (inactive) | > 100 µM | > 100 µM (inactive) | – | > 100 µM (inactive) | 7.91 µM (inactive) | 25.9 µM (inactive) | 80.5 µM (inactive) | > 100 µM (inactive) | > 100 µM (inactive) | > 100 µM (inactive) | > 100 µM (inactive) | 45.8 µM (inactive) | > 100 µM (inactive) | 65.9 µM (inactive) | 29.1 µM (inactive) | > 100 µM (inactive) | > 100 µM (inactive)
10 | CC(=O)O[C@H]1CC[C@@]2(C)C(=CC[C@@H]3[C@@H]2CC[C@]2(C)C(=N/O)/C(=C\c4ccccc4)C[C@@H]32)C1 | 17.7 µM (inactive) | 10.6 µM (inactive) | 4.86 µM (inactive) | 16.5 µM | 9.14 µM (inactive) | – | 4.9 µM (inactive) | 3.08 µM (inactive) | 17.5 µM (inactive) | 3.53 µM (inactive) | 9.71 µM (inactive) | 12.7 µM (inactive) | 13 µM (inactive) | 20.9 µM (inactive) | 24.9 µM (inactive) | 9.06 µM (inactive) | 41.1 µM (inactive) | 13 µM (inactive) | 12.5 µM (inactive) | 7.08 µM (inactive)
11 | Cc1nnc(N2C(=O)C(=Cc3ccc(Cl)cc3)N=C2c2ccc(Cl)cc2)nc1/C=C\c1ccc(N(C)C)cc1 | > 100 µM (inactive) | > 100 µM (inactive) | > 100 µM (inactive) | > 100 µM | > 100 µM (inactive) | – | 83.6 µM (inactive) | > 100 µM (inactive) | > 100 µM (inactive) | > 100 µM (inactive) | > 100 µM (inactive) | > 100 µM (inactive) | > 100 µM (inactive) | > 100 µM (inactive) | > 100 µM (inactive) | 50.8 µM (inactive) | > 100 µM (inactive) | > 100 µM (inactive) | > 100 µM (inactive) | > 100 µM (inactive)
12 | C/C(=C\[C@H]1C[C@@H]([C@@H]2CC[C@]34C[C@]23C=C[C@@H]2[C@@]3(C)CC=C5C[C@@H](c6ccccc6)OC[C@]5(C)[C@@H]3C[C@@H](O)[C@]24C)C(=O)O1)CO [DICHAPETALIN A] | 1.04 µM (active) | 2.01 µM (inactive) | 1.51 µM (inactive) | 4.38 µM | 1.52 µM (inactive) | – | 2.77 µM (inactive) | 1.59 µM (inactive) | 0.721 µM (active) | 2.88 µM (inactive) | 4.91 µM (inactive) | 3.74 µM (inactive) | 31.4 µM (inactive) | 2.72 µM (inactive) | 1.04 µM (active) | 2.48 µM (inactive) | 1.95 µM (inactive) | 1.78 µM (inactive) | 14.9 µM (inactive) | 3.08 µM (inactive)
13 | Oc1ccccc1/C=N/N1C(=S)N(c2ccccc2)C(=N\c2ccccc2)/C1=N/c1ccccc1 | > 37 µM (inactive) | 3.27 µM (inactive) | 14.9 µM (inactive) | 35 µM | 13.7 µM (inactive) | – | 15.1 µM (inactive) | > 33.3 µM (inactive) | 12.4 µM (inactive) | 3.89 µM (inactive) | 4.97 µM (inactive) | 26.8 µM (inactive) | 17.7 µM (inactive) | 22.3 µM (inactive) | 2.79 µM (inactive) | 14 µM (inactive) | 4.57 µM (inactive) | > 100 µM (inactive) | 11.6 µM (inactive) | 13.6 µM (inactive)
14 | Cc1ccc([N+](=O)[O-])c2c(NCC(O)CO)ccnc12 (centres undefined) | 83.9 µM (inactive) | 25.5 µM (inactive) | 19.8 µM (inactive) | 28.8 µM | 37.6 µM (inactive) | – | 51.9 µM (inactive) | > 100 µM (inactive) | 20 µM (inactive) | > 10 µM (inactive) | 47 µM (inactive) | > 100 µM (inactive) | 14.3 µM (inactive) | 49.2 µM (inactive) | 93.8 µM (inactive) | 74.3 µM (inactive) | 34.8 µM (inactive) | 32.1 µM (inactive) | 73.1 µM (inactive) | > 100 µM (inactive)
15 | O=C(c1cc2ccccc2[nH]1)N1C2CCC1CN(CCOC(c1ccc(F)cc1)c1ccc(F)cc1)CC2 (centres undefined) | 6.01 µM (inactive) | 5 µM (inactive) | 8.55 µM (inactive) | 3.24 µM | 9.48 µM (inactive) | – | > 100 µM (inactive) | 4.91 µM (inactive) | 4.48 µM (inactive) | 18.1 µM (inactive) | > 100 µM (inactive) | > 100 µM (inactive) | 81.8 µM (inactive) | > 100 µM (inactive) | 3.99 µM (inactive) | 3.22 µM (inactive) | > 100 µM (inactive) | 7.06 µM (inactive) | 6.9 µM (inactive) | > 100 µM (inactive)
